{"source": "PubChem BioAssay AID200", "about": "(DTP/NCI, 2004)", "tested_on": "B6C3F1 mice, B16 melanoma ip, median survival T/C", "experiment": "NCI In Vivo Anticancer Drug Screen. Data for tumor model B16 Melanoma (intraperitoneal) in B6C3F1 mice", "conditions": "endpoint: median survival time, higher = longer survival", "outline": "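Antitumor effect was judged in mice with transplanted tumors by dividing the treated group's survival measure by that of vehicle controls.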", "key": {"[1]": {"conditions": "dose: 0.5 mg/kg/injection, schedule: Q01DX009 (ip), vehicle: saline"}, "[2]": {"conditions": "dose: 12.5 mg/kg/injection, schedule: Q01DX009 (ip), vehicle: saline with Tween-80"}, "[3]": {"conditions": "dose: 25.0 mg/kg/injection, schedule: Q01DX009 (ip), vehicle: saline with Tween-80"}, "[4]": {"conditions": "dose: 50.0 mg/kg/injection, schedule: Q01DX009 (ip), vehicle: saline with Tween-80"}}, "note": "Values joined by “and” are separate entries in the source; they are usually repeats but may differ in a detail not shown here. Identical values can stand only once. Toxic doses and inconclusive results are not listed.", "data": [{"smiles": "CC(=O)OCC1OC(n2cc(CBr)nn2)C(OC(C)=O)C(OC(C)=O)C1OC(C)=O", "note": "(configuration not stated)", "values": [{"measurement": "T/C", "setting": "dose: 3.12 mg/kg/injection, schedule: Q01DX009 (ip), vehicle: saline", "result": "100 % of control"}, {"measurement": "T/C", "setting": "dose: 6.25 mg/kg/injection, schedule: Q01DX009 (ip), vehicle: saline", "result": "103 % of control"}, {"measurement": "T/C", "setting": "dose: 12.5 mg/kg/injection, schedule: Q01DX009 (ip), vehicle: saline", "result": "102 % of control"}, {"measurement": "T/C", "setting": "dose: 25.0 mg/kg/injection, schedule: Q01DX009 (ip), vehicle: saline", "result": "113 % of control and 114 % of control"}, {"measurement": "T/C", "setting": "dose: 50.0 mg/kg/injection, schedule: Q01DX009 (ip), vehicle: saline", "result": "117 % of control and 119 % of control"}, {"measurement": "T/C", "setting": "dose: 100.0 mg/kg/injection, schedule: Q01DX009 (ip), vehicle: saline", "result": "105 % of control"}]}, {"smiles": "Cc1c(N)nc(C(CC(N)=O)NCC(N)C(N)=O)nc1C(=O)NC(C(=O)NC(C)C(O)CC(=O)NC(C(=O)NC(OC1OC(C)C(N)C(O)C1O)C(O)c1nc(-c2nc(C(=O)NCCCC(N)CC(=O)NCCCNCCCCN)cs2)cs1)C(C)O)C(OC1OC(CO)C(O)C(O)C1OC1OC(CO)C(O)C(OC(N)=O)C1O)c1cnc[nH]1", "note": "(configuration not stated)", "values": [{"measurement": "T/C", "setting": "[1]", "result": "120 % of control"}]}, {"smiles": "Nc1nc(SCc2ccccc2Cl)c2ncn(C3OC(CO)C(O)C3O)c2n1", "note": "(configuration not stated)", "values": [{"measurement": "T/C", "setting": "[2]", "result": "106 % of control"}, {"measurement": "T/C", "setting": "[3]", "result": "90 % of control"}]}, {"smiles": "COc1cccc2c1C(=O)c1c(O)c3c(c(O)c1C2=O)CC(O)(C(C)=O)CC3OC1CC(NC(=O)C(CCCCN)NC(=O)C2CCCN2)C(O)C(C)O1", "note": "(configuration not stated)", "values": [{"measurement": "T/C", "setting": "dose: 1.25 mg/kg/injection, schedule: Q01DX001 (ip), vehicle: water", "result": "112 % of control"}, {"measurement": "T/C", "setting": "dose: 2.5 mg/kg/injection, schedule: Q01DX001 (ip), vehicle: water", "result": "110 % of control"}, {"measurement": "T/C", "setting": "dose: 20.0 mg/kg/injection, schedule: Q01DX001 (ip), vehicle: water", "result": "176 % of control"}, {"measurement": "T/C", "setting": "dose: 40.0 mg/kg/injection, schedule: Q01DX001 (ip), vehicle: water", "result": "267 % of control"}]}, {"smiles": "CCC1=C[C@H]2CN(CCc3c([nH]c4ccccc34)[C@@](OC(C)=O)(c3cc4c(cc3OC)N(C)[C@H]3[C@@](O)(C(=O)NCCSc5ccccc5)[C@H](O)[C@]5(CC)C=CCN6CC[C@]43[C@@H]65)C2)C1", "values": [{"measurement": "T/C", "setting": "dose: 0.25 mg/kg/injection, schedule: Q01DX009 (ip), vehicle: water", "result": "107 % of control"}, {"measurement": "T/C", "setting": "dose: 1.0 mg/kg/injection, schedule: Q01DX009 (ip), vehicle: water", "result": "118 % of control"}, {"measurement": "T/C", "setting": "dose: 2.0 mg/kg/injection, schedule: Q01DX009 (ip), vehicle: water", "result": "124 % of control"}]}, {"smiles": "CCOC(=O)N1CCN(CCCCCOc2ccccc2C2CCCCC2)CC1", "values": [{"measurement": "T/C", "setting": "[2]", "result": "108 % of control"}, {"measurement": "T/C", "setting": "[3]", "result": "96 % of control"}, {"measurement": "T/C", "setting": "[4]", "result": "87 % of control"}]}, {"smiles": "O=C(CCl)NC(Cc1ccc(O)cc1)C(=O)O", "note": "(configuration not stated)", "values": [{"measurement": "T/C", "setting": "[4]", "result": "93 % of control"}, {"measurement": "T/C", "setting": "dose: 100.0 mg/kg/injection, schedule: Q01DX009 (ip), vehicle: saline with Tween-80", "result": "87 % of control"}]}, {"smiles": "O=C(C#Cc1ccccc1)c1ccccc1", "values": [{"measurement": "T/C", "setting": "dose: 3.12 mg/kg/injection, schedule: Q01DX009 (ip), vehicle: Klucel (hydroxypropylcellulose) (HPC)", "result": "100 % of control and 102 % of control"}, {"measurement": "T/C", "setting": "dose: 6.25 mg/kg/injection, schedule: Q01DX009 (ip), vehicle: Klucel (hydroxypropylcellulose) (HPC)", "result": "92 % of control and 102 % of control"}, {"measurement": "T/C", "setting": "dose: 12.5 mg/kg/injection, schedule: Q01DX009 (ip), vehicle: Klucel (hydroxypropylcellulose) (HPC)", "result": "97 % of control and 101 % of control"}, {"measurement": "T/C", "setting": "dose: 25.0 mg/kg/injection, schedule: Q01DX009 (ip), vehicle: Klucel (hydroxypropylcellulose) (HPC)", "result": "90 % of control and 94 % of control"}]}, {"smiles": "NC(=O)c1ccc(N)nc1", "values": [{"measurement": "T/C", "setting": "[1]", "result": "113 % of control"}, {"measurement": "T/C", "setting": "dose: 1.0 mg/kg/injection, schedule: Q01DX009 (ip), vehicle: saline", "result": "119 % of control"}, {"measurement": "T/C", "setting": "dose: 2.0 mg/kg/injection, schedule: Q01DX009 (ip), vehicle: saline", "result": "117 % of control"}]}, {"smiles": "CCN(CC)CCn1[nH]c2c3ccc(=O)cc3sc3c(NCCN)ccc1c32", "values": [{"measurement": "T/C", "setting": "dose: 1.56 mg/kg/injection, schedule: Q01DX009 (ip), vehicle: water", "result": "161 % of control"}, {"measurement": "T/C", "setting": "dose: 1.7 mg/kg/injection, schedule: Q01DX009 (ip), vehicle: water", "result": "189 % of control"}, {"measurement": "T/C", "setting": "dose: 2.7 mg/kg/injection, schedule: Q01DX009 (ip), vehicle: water", "result": "225 % of control"}, {"measurement": "T/C", "setting": "dose: 4.5 mg/kg/injection, schedule: Q01DX009 (ip), vehicle: water", "result": "270 % of control"}, {"measurement": "T/C", "setting": "dose: 7.5 mg/kg/injection, schedule: Q01DX009 (ip), vehicle: water", "result": "281 % of control"}, {"measurement": "T/C", "setting": "dose: 12.5 mg/kg/injection, schedule: Q01DX009 (ip), vehicle: water", "result": "161 % of control and 264 % of control"}]}, {"smiles": "C/C=C1\\C(=O)O[C@@]23C=C[C@H]4C(C(=O)OC)=CO[C@@H](O[C@H]12)[C@H]43", "values": [{"measurement": "T/C", "setting": "dose: 3.75 mg/kg/injection, schedule: Q01DX009 (ip), vehicle: Klucel (hydroxypropylcellulose) (HPC)", "result": "101 % of control"}, {"measurement": "T/C", "setting": "dose: 7.5 mg/kg/injection, schedule: Q01DX009 (ip), vehicle: Klucel (hydroxypropylcellulose) (HPC)", "result": "95 % of control"}, {"measurement": "T/C", "setting": "dose: 15.0 mg/kg/injection, schedule: Q01DX009 (ip), vehicle: Klucel (hydroxypropylcellulose) (HPC)", "result": "95 % of control"}]}, {"smiles": "CCOC(=O)Nc1cc2c(c(N)n1)N=C(c1ccccc1)CN2", "values": [{"measurement": "T/C", "setting": "dose: 1.25 mg/kg/injection, schedule: Q01DX009 (ip), vehicle: saline with Tween-80", "result": "96 % of control"}, {"measurement": "T/C", "setting": "dose: 2.5 mg/kg/injection, schedule: Q01DX009 (ip), vehicle: saline with Tween-80", "result": "102 % of control"}, {"measurement": "T/C", "setting": "dose: 5.0 mg/kg/injection, schedule: Q01DX009 (ip), vehicle: saline with Tween-80", "result": "107 % of control"}]}, {"smiles": "O=NN(CCF)C(=O)N[C@H]1CCCC[C@H]1O", "values": [{"measurement": "T/C", "setting": "dose: 7.5 mg/kg/injection, schedule: Q01DX001 (ip), vehicle: saline", "result": "109 % of control"}, {"measurement": "T/C", "setting": "dose: 30.0 mg/kg/injection, schedule: Q01DX001 (ip), vehicle: saline", "result": "177 % of control"}, {"measurement": "T/C", "setting": "dose: 60.0 mg/kg/injection, schedule: Q01DX001 (ip), vehicle: saline", "result": "209 % of control"}]}, {"smiles": "CS(C)(O)NC(N)=O", "values": [{"measurement": "T/C", "setting": "dose: 50.0 mg/kg/injection, schedule: Q01DX009 (ip), vehicle: water", "result": "105 % of control"}, {"measurement": "T/C", "setting": "dose: 100.0 mg/kg/injection, schedule: Q01DX009 (ip), vehicle: water", "result": "103 % of control"}, {"measurement": "T/C", "setting": "dose: 200.0 mg/kg/injection, schedule: Q01DX009 (ip), vehicle: water", "result": "100 % of control"}, {"measurement": "T/C", "setting": "dose: 400.0 mg/kg/injection, schedule: Q01DX009 (ip), vehicle: water", "result": "105 % of control"}]}]}
